Results: patent US20050074829A1, “Methods for identifying inhibitors of sterol 14-alpha-demethylase” (priority 2003, published 2005)

Legend:
OBT-DM [1] = target: T1, OBT-DM (Arabidopsis thaliana, UniProt Q9SAA9); conditions: for wavelength of maximum absorbance in difference spectrum / wavelength of minimum absorbance in difference spectrum: 0.25 mg/ml OBT-DM in 50 mM HEPES pH 7.2, 1 μL of 1 mM inhibitor added, spectrum 300-500 nm
T1 sequence (Q9SAA9 35-488): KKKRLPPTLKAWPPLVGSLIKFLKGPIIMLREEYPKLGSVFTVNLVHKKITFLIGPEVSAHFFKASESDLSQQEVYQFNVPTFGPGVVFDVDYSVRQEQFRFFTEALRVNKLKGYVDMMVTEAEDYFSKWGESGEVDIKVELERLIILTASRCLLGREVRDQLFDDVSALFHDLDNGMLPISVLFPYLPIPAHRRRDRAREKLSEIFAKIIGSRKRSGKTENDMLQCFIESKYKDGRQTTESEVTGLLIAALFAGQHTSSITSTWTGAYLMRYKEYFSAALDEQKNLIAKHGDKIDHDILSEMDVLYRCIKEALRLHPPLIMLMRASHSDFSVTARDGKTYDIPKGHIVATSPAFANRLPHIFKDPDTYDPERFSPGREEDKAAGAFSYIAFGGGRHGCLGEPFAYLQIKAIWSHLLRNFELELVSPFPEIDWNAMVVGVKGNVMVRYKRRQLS
Protocol: An OBT-DM solution (0.25 mg/ml) in 50 mM HEPES, pH 7.2, was placed in a micro-quartz cuvette with 1 cm path length. The solution was used to blank a Hewlett Packard 8453 spectrometer. Then 1 μL of a 1 mM solution of type II inhibitor in 50% (v/v) DMSO ethanol was added and the spectrum was acquired between the 300 and 500 nm region.

OBT-DM [2] = target: T2, OBT-DM (Arabidopsis thaliana, UniProt Q9SAA9); assay: Equilibrium inhibitory constant for OBT-DM (no method given); type: binding
T2 sequence (Q9SAA9 1-488): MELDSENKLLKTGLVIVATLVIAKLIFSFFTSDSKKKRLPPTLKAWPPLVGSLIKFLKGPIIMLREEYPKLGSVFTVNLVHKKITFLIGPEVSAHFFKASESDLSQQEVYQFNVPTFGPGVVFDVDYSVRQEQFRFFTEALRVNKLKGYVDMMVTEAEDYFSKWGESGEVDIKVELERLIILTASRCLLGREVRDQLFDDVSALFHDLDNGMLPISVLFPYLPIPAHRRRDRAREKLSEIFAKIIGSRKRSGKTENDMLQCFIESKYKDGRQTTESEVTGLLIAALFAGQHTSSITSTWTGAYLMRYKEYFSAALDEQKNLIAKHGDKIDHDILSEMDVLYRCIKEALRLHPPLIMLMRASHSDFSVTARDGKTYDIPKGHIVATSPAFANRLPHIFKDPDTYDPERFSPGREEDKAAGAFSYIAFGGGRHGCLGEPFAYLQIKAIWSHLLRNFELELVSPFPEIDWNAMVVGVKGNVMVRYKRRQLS

OBT-DM [3] = target: T1, OBT-DM; assay: 384-well assay for identification of inhibitors of OBT-DM, read at 413 nm with 432 nm as reference; type: binding; set-up: made in house; host or cells: E. coli Rosetta DE3 pLysS; conditions: 10 μM compound, 0.4 mg/ml OBT-DM, 20 min room temperature; negative control wells 0.09-0.12
Protocol: The assay was performed using 0.4 mg/ml OBTDM in 50 mM HEPES, pH 7.2, and 0.01% Tween 20 in all wells plus 10 μM Ketoconazole (positive control) in 50 mM HEPES, pH 7.2, and 0.01% Tween 20 in plate rows A-H; 10 μM compounds numbered 1-24 in 50 mM HEPES, pH 7.2, and 0.01% Tween 20 in row I; and 50 mM HEPES, pH 7.2, and 0.01% Tween 20 in rows K-P (negative control).
The assay was set up in a 384-well plate format and initiated by the addition of 40 μl of 20 μM Ketoconazole (ICN Biomedicals, Inc., Irvine, Calif.) in 50 mM HEPES, pH 7.2, 0.01% Tween 20, to rows A-H to a final concentration of 10 μM (positive control) and 40 μl of 50 mM HEPES, pH 7.2, 0.01% Tween 20, to rows K-P (negative control). Test compounds were added to a concentration of 10 μM in row I by manual addition of 40 μl of a 20 μM solution (compounds assigned numbers from 1-24). Then 40 μl of an 0.8 mg/ml solution of OBT-DM protein in 50 mM HEPES, pH 7.2, 0.01% Tween 20 (from Example 2) was added to all wells to a final concentration of 0.4 mg/ml via multidrop.

Row | Structure (SMILES) | wavelength of maximum absorbance in difference spectrum (OBT-DM [1]) [nm] | wavelength of minimum absorbance in difference spectrum (OBT-DM [1]) [nm] | magnitude of the type II difference spectrum signal (OBT-DM [1]; comparison among inhibitors studied) | Ki (OBT-DM [2]) [µM] | absorbance reading at 413 nm using 432 nm as reference wavelength (OBT-DM [3])
1 | CC(=O)N1CCN(c2ccc(OCC3COC(Cn4ccnc4)(c4ccc(Cl)cc4Cl)O3)cc2)CC1 (stereo not drawn) [Ketoconazole] | 432 | 413 | maximum magnitude of the signal |  | 
2 | OC(Cn1cncn1)(Cn1cncn1)c1ccc(F)cc1F [Compound 2, Fluconazole] | 432 | 413 |  |  | 
3 | Clc1ccccc1C(c1ccccc1)(c1ccccc1)n1ccnc1 [Compound 4, Clotrimazole] | 432 | 413 |  |  | 
4 | Nc1nc[nH]n1 [Compound 10, 3-amino-1,2,4-triazole] |  |  |  | > 10 | negative result
